One data set has as its system cucumber downy mildew. In words: Protective activity in vivo (whole plant spray) against cucumber downy mildew. As to conditions: Cucumis sativus, read-out: protective activity (%) against cucumber downy mildew. On the procedure: (§1) The method is as followed: The whole plant is used in this test. The compound is dissolved in a proper solvent to get mother solution. The proper solvent is selected from acetone, methanol, DMF and so on according to their dissolving capability to the sample. The volume rate of solvent and testing solution (v/v) is equal to or less than 5%. […] The testing solution is sprayed to the host plant by a special plant sprayer. The plant is inoculated with fungus after 24 hours. According to the infecting characteristic of fungus, the plant is stored in a humidity chamber and then transferred into greenhouse after infection is finished. And the other plants are placed in greenhouse directly.

For data set [1], the system named is Green peach aphids (Myzus Persicae Sulzer). In words: Bioactivity test against green peach aphid (airbrush foliar spray). In kind it is in vivo. The following applies: 100 mg/L, contrastive test (Table 134). On the procedure: (§2) Compounds were dissolved in mixed solvent (acetone:methanol=1:1), and diluted to required concentration with water containing 0.1% of tween 80.
(§3) Diamond back moth, armyworm, peach aphid and carmine spider mite were used as targets and the method of spraying by airbrush was used for determination of insecticidal biassays.
Method: Filter papers were put in culture dishes (Diameter=6 cm), and water was dripped on filter papers for preserving moisture. Green peach aphids (Myzus Persicae Sulzer) were maintained on cabbage. Leaves (Diameter=3 cm) of approximately 15-30 aphids were put in the culture dishes. Bioactivity tests were used the method of Airbrush Foliar Spray, pressure=10 psi (0.7 kg/cm2), spray volume=0.5 mL. The studies were conducted at […] 25±1 C in incubator cabinets with 60±5% RH. Survey the survival aphids after 48 h and calculate the death rates.

For a further data set, the system named is carmine spider mite. In words: Bioactivity test against carmine spider mite (airbrush spray). It counts as in vivo. As to conditions: 600 mg/L, contrastive test (Table 135). On the procedure: as §2, §3
The method: Broadbean shoots with two true leaves in pot were taken, the healthy adults of carmine spider mite were inoculated to the leaves. The adults were counted and then sprayed with airbrush at the pressure of 0.7 kg/cm^2 and at dose of 0.5 ml. 3 replicates were set for each treatment. And then they were maintained in standard observation room. Scores were conducted and mortalities were calculated after 72 hrs.

In a further data set the test system is rice blast. In words: microbe, parasite or virus in culture. In kind it is cell-based. The following applies: Pyricularia oryzae, 24 h, read-out: inhibition rate against rice blast.
The next data set concerns wheat powdery mildew. In words: Protective activity in vivo (whole plant spray) against wheat powdery mildew. The following applies: Triticum aestivum; 100 mg/L, comparative test (Table 130). On the procedure:
as §1

For the next data set, the system named is cucumber gray mold. Description: Fungicidal activity in vitro (96-well, inhibition rate) against cucumber gray mold. In kind it is cell-based. As to conditions: 24 hours.
The test system of the next data set is corn rust. In words: Protective activity in vivo (whole plant spray) against corn rust. The following applies: comparative test (Table 131). On the procedure: as §1
The next data set has as its system cucumber anthracnose. In words: Protective activity in vivo (whole plant spray) against cucumber anthracnose. The following applies: Cucumis sativus; 100 mg/L, comparative test (Table 132); read-out: protective activity (%) against cucumber anthracnose. On the procedure: as §1
The subject of another data set is diamond back moth. Description: Bioactivity test against diamond back moth (airbrush spray, leaf disc). The following applies: 600 mg/L, contrastive test (Table 133). In kind it is in vivo. On the procedure: as §2, §3
The method of spraying by airbrush: The cabbage leaves were made into plates of 2 cm diameter by use of punch. A test solution (0.5 ml) was sprayed by airbrush at the pressure of 0.7 kg/cm^2 to both sides of every plate. 10 Second instar larvae were put into the petri-dishes after the leaf disc air-dried and 3 replicates were set for each treatment. Then the insects were maintained in observation room (25° C., 60˜70% R.H.). Scores were conducted and mortalities were calculated after 72 h.

Each structure is given as a SMILES string. Read-outs that look alike come from different tables or passages of the source.

By melting point is commonly meant the temperature, or range, at which the solid turns liquid. In turn, `Clc1ccccc1-n1ccc(OCCNc2ncnc3ccccc23)n1` [Compound 40-17] yielded a melting point of 186.6 °C. Moreover, the inhibition at 25 µg/mL with cucumber downy mildew came out at 70%.

Regarding `Cc1nc(C)c(C)c(N(C)Cc2cnn(-c3ccccc3)c2)n1` [CK3], the “Insecticidal activity against peach aphid (%)” value in data set [1] came to 30%. Moreover, in the data set with carmine spider mite, the “Insecticidal activity against carmine spider mite (%)” value is 56%. The inhibition at 25 ppm with rice blast and in the data set on cucumber gray mold was 0% throughout. Moreover, the inhibition at 100 µg/mL with wheat powdery mildew and in the data set with cucumber anthracnose was 0% in each case. Moreover, the inhibition at 25 µg/mL with cucumber downy mildew (25 mg/L, comparative test (Table 129)) worked out at 0%. For the same compound, the “control effect against corn rust (%)” value in the data set with corn rust (25 mg/L) is given as 0%; in the data set with corn rust (100 mg/L) it was 20%. For the same compound, in the data set with diamond back moth, the “Insecticidal activity against diamond back moth (%)” value is listed as 0%.

For the origin of these results see patent US11008339B2, “Substituted pyrazole compounds containing pyrimidine and preparation method and use thereof” (Shenyang Sinochem Agrochemicals R&D Co., Ltd., priority 2015, dated 2021).
